Test results: patent US9986723B2, “Screen and use of therapeutics for pancreatic ductal adenocarcinoma” (The Board of Regents of the University of Texas System, priority 2014, dated 2018)

Key:
Gas6 = Gas6 γ-carboxylation in conditioned media of HEK293 cells expressing recombinant Gas6 (immunoblot); assay type: cell-based; conditions: Vitamin K + warfarin, in vitro
Method: (§1) (FIG. 24A) HEK293 cells engineered to stably express recombinant Gas6 were grown in the presence of Vitamin K or Vitamin K+warfarin. Gas6 levels and γ-carboxylation were assayed by immunoblotting conditioned media. Conditioned media from untransfected HEK293 cells was used as a negative control. (FIG. 24B) Panc1 cells were grown overnight in media with 1% serum with no additions (NT), warfarin (2 μM) or BGB324 (2 μM). Lysates were probed for total Axl (tAxl) and phosphorylated Axl (pAxl). (FIG. 24C) Panc1 cells were grown in the presence of control media, Vitamin K, warfarin or warfarin+Vitamin K. The level of phosphorylated Axl (pAXL, red) was determined by immunofluorescence. (FIG. 24D) Panc1 cells were grown overnight in media with 1% serum with no additions (control), warfarin (1 μM), Gas6 (1.3 nM) or Gas6+warfarin. Lysates were probed for phosphorylated Akt (pAkt) and actin. (FIG. 24E) Lysates from Panc1 tumors harvested from mice treated with control or warfarin were probed for expression of tAxl, pAxl, actin, pAKT, tAKT, and cleaved Parp. (FIG. 24F) The effect of warfarin on cell migration was assessed by a ‘scratch’ assay. Monolayers of the indicted cells were wounded with a pipet tip. The cells were incubated in media containing 2% serum+/−warfarin (2 μM) or media containing 2% serum+Gas6 (1.3 nM)+/−warfarin.

Axl = target: T1, Axl (Homo sapiens, UniProt P30530); test: Phosphorylated Axl in Panc-1 cells (western blot, immunofluorescence); assay type: cell-based; conditions: overnight, 1% serum, 2 μM
T1 construct: Lysates were probed for total Axl (tAxl) and phosphorylated Axl (pAxl); endogenous in cells; host or cells: Panc-1
Method: as §1

T1 sequence (P30530 26-894): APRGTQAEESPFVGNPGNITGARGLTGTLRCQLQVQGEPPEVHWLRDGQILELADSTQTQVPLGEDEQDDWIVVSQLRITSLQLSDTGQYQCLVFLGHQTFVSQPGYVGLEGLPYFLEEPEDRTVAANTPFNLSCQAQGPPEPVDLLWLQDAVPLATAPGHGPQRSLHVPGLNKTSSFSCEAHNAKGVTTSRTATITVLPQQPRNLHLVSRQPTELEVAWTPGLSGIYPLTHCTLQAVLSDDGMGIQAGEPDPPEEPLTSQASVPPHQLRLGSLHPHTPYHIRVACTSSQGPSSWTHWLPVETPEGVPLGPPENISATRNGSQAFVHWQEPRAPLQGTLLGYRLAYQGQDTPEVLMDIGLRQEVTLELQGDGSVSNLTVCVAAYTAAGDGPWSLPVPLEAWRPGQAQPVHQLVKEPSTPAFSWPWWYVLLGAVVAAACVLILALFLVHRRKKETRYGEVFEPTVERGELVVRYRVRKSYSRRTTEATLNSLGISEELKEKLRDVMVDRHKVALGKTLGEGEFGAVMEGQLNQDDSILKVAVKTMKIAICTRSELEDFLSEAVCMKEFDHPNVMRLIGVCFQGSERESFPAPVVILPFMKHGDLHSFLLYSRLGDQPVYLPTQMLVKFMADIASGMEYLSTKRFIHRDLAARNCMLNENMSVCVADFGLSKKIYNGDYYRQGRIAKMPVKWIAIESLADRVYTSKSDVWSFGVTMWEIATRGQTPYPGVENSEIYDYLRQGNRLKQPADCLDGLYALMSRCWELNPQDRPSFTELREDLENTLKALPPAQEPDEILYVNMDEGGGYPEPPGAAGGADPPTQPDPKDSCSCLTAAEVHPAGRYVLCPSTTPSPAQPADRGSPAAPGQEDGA

SMILES: CC(=O)CC(c1ccccc1)c1c(O)c2ccccc2oc1=O (racemic) [Warfarin]
- γ-carboxylation of Gas6 (Gas6): prevented
- phosphorylation of Axl (pAxl) (Axl): inhibited basal pAxl levels
